Test results reported in patent publication US9556165B2 (priority 2012, dated 2017).
≈ marks a conversion by molar mass, not a printed value.

Key:
Format in all cases: cell-based
[1] = system: B. fragilis 6688; assay: MIC determination, broth microdilution (CLSI); settings: for MIC: Bacteroides fragilis, 6688, strain 15, read-out: strain 15 MIC
[2] = system: S. maltophilia ICB7569; assay: MIC determination, broth microdilution (CLSI)
[3] = system: P. aeruginosa 2297 (AmpC wt); assay: MIC determination, broth microdilution (CLSI); settings: for MIC: Pseudomonas aeruginosa, strain 7
[4] = system: K. pneumoniae 60; assay: MIC determination, broth microdilution (CLSI)
[5] = system: C. perfringens DSM756; assay: microbe, parasite or virus in culture
[6] = system: E. coli J62-TEM-3; assay: MIC determination, broth microdilution (CLSI); settings: for MIC: Escherichia coli, J62TEM3, read-out: strain 18 MIC, strain 18
[7] = system: P. aeruginosa 2297-con (AmpC derepressed); assay: MIC determination, broth microdilution (CLSI); settings: for MIC: Pseudomonas aeruginosa, read-out: strain 8 MIC, strain 8
[8] = system: M. catarrhalis ICB489; assay: MIC determination, broth microdilution (CLSI)
[9] = system: P. aeruginosa PAO1; assay: MIC determination, broth microdilution (CLSI)
[10] = system: strain 20; assay: MIC determination, broth microdilution (CLSI)
[11] = system: strain 21; assay: MIC determination, broth microdilution (CLSI)
[12] = system: E. cloacae 34654; assay: MIC determination, broth microdilution (CLSI)
[13] = system: S. aureus 133; assay: MIC determination, broth microdilution (CLSI); settings: for MIC: Staphylococcus aureus, 133, strain 11, read-out: strain 11 MIC
[14] = system: E. coli J62; assay: MIC determination, broth microdilution (CLSI)
[15] = system: E. coli ATCC25922; assay: MIC determination, broth microdilution (CLSI)
[16] = system: strain 19; assay: MIC determination, broth microdilution (CLSI)
[17] = system: C. freundii K21/3034; assay: MIC determination, broth microdilution (CLSI)
[18] = system: H. influenzae ATCC 49247; assay: MIC determination, broth microdilution (CLSI)
[19] = system: A. baumannii ATCC15308; assay: MIC determination, broth microdilution (CLSI); settings: for MIC: Acinetobacter baumannii, ATCC15308, strain 9
[20] = system: M. morganii 126/3048; assay: MIC determination, broth microdilution (CLSI)
[21] = system: S. pneumoniae 113; assay: MIC determination, broth microdilution (CLSI); settings: Streptococcus pneumoniae, 113, strain 14; read-out: strain 14 MIC

SMILES: CC1(C)[C@H](NC(=O)/C(=N\OC(COc2ccc(C(=N)N)cc2)C(=O)O)c2csc(N)n2)C(=O)N1OS(=O)(=O)O (mixture of isomers) [Example 27B, (2S and 2R)-2-({[(1Z)-1-(2-Amino-1,3-thiazol-4-yl)-2-{[(3S)-2,2-dimethyl-4-oxo-1-(sulfo-oxy)azetidin-3-yl]amino}-2-oxoethylidene]amino}oxy)-3-(4-carbamimidoylphenoxy)-propanoic acid]
- strain 15 MIC [1]: 32 µg/mL
- strain 10 MIC [2]: 8 µg/mL
- strain 7 MIC [3]: 32 µg/mL
- strain 2 MIC [4]: 1 µg/mL
- strain 16 MIC [5]: 32 µg/mL
- strain 18 MIC [6]: 8 µg/mL
- strain 8 MIC [7]: 16 µg/mL
- strain 12 MIC [8]: 0.25 µg/mL
- strain 6 MIC [9]: 16 µg/mL
- strain 20 MIC [10]: 2 µg/mL
- strain 21 MIC [11]: 2 µg/mL
- strain 3 MIC [12]: 4 µg/mL
- strain 11 MIC [13]: 0.125 µg/mL
- strain 17 MIC [14]: 2 µg/mL
- strain 1 MIC [15]: 2 µg/mL
- strain 19 MIC [16]: 1 µg/mL
- strain 4 MIC [17]: 1 µg/mL
- strain 13 MIC [18]: 0.5 µg/mL
- strain 9 MIC [19]: 16 µg/mL
- strain 5 MIC [20]: 1 µg/mL

SMILES: CC1(C)[C@H](NC(=O)/C(=N\OC(COc2ccc(C(=N)N)c(O)c2)C(=O)O)c2csc(N)n2)C(=O)N1OS(=O)(=O)O (mixture of isomers) [Example 34A, (2S and 2R)-2-({[(1Z)-1-(2-Amino-1,3-thiazol-4-yl)-2-{[(3S)-2,2-dimethyl-4-oxo-1-(sulfo-oxy)azetidin-3-yl]amino}-2-oxoethylidene]amino}oxy)-3-(4-carbamimidoyl-3-hydroxyphenoxy)propanoic acid]
- MIC [1]: 16 µg/mL
- strain 10 MIC [2]: 8 µg/mL
- strain 7 MIC [3]: 8 µg/mL
- strain 2 MIC [4]: 1 µg/mL
- strain 16 MIC [5]: 2 µg/mL
- MIC [6]: 32 µg/mL
- MIC [7]: 16 µg/mL
- strain 12 MIC [8]: ≦0.063 mg/L
- strain 6 MIC [9]: 8 µg/mL
- strain 20 MIC [10]: 0.5 µg/mL
- strain 21 MIC [11]: 0.5 µg/mL
- strain 3 MIC [12]: 0.5 µg/mL
- strain 11 MIC [13]: ≦0.063 mg/L
- strain 17 MIC [14]: 1 µg/mL
- strain 1 MIC [15]: 1 µg/mL
- strain 19 MIC [16]: 0.5 µg/mL
- strain 4 MIC [17]: 1 µg/mL
- strain 13 MIC [18]: 0.5 µg/mL
- MIC [19]: 32 µg/mL
- strain 5 MIC [20]: 0.25 µg/mL

SMILES: CC1(C)[C@H](NC(=O)/C(=N\OC(COc2ccc(C(=N)N)nc2)C(=O)O)c2csc(N)n2)C(=O)N1OS(=O)(=O)O (mixture of isomers) [Example 36A, (2S and 2R)-2-({[(1Z)-1-(2-Amino-1,3-thiazol-4-yl)-2-{[(3S)-2,2-dimethyl-4-oxo-1-(sulfo-oxy)azetidin-3-yl]amino}-2-oxoethylidene]amino}oxy)-3-[(6-carbamimidoylpyridin-3-yl)oxy]propanoic acid]
- strain 15 MIC [1]: 8 µg/mL
- strain 10 MIC [2]: 2 µg/mL
- MIC [3]: 4 µg/mL
- strain 2 MIC [4]: ≦0.063 mg/L
- strain 16 MIC [5]: 2 µg/mL
- strain 18 MIC [6]: 8 µg/mL
- strain 8 MIC [7]: 4 µg/mL
- strain 12 MIC [8]: ≦0.063 mg/L
- strain 6 MIC [9]: 4 µg/mL
- strain 20 MIC [10]: ≦0.063 mg/L
- strain 21 MIC [11]: 0.125 µg/mL
- strain 3 MIC [12]: ≦0.063 mg/L
- MIC [13]: ≤ 0.063 µg/mL
- strain 17 MIC [14]: 0.125 µg/mL
- strain 1 MIC [15]: 0.125 µg/mL
- strain 19 MIC [16]: 0.125 µg/mL
- strain 4 MIC [17]: 0.125 µg/mL
- strain 13 MIC [18]: 0.5 µg/mL
- strain 9 MIC [19]: 4 µg/mL
- strain 5 MIC [20]: ≦0.063 mg/L

SMILES: CC1(C)[C@H](NC(=O)/C(=N\OCCOc2ccc(C(=N)N)nc2)c2csc(N)n2)C(=O)N1OS(=O)(=O)O [Example 4, (2Z)-2-(2-Amino-1,3-thiazol-4-yl)-2-({2-[(6-carbamimidoylpyridin-3-yl)oxy]ethoxy}imino)-N-[(3)-2,2-dimethyl-4-oxo-1-(sulfooxy)azetidin-3-yl]ethanamide]
- MIC [1]: 2 µg/mL (≈ 3.69 µM)
- MIC ([2]; Stenotrophomonas maltophilia, ICB7569, strain 10): 4 µg/mL (≈ 7.37 µM)
- MIC [3]: 16 µg/mL (≈ 29.5 µM)
- MIC ([4]; Klebsiella pneumoniae, 60, strain 2): 0.25 µg/mL (≈ 0.461 µM)
- MIC ([5]; Clostridium perfringens, DSM756, read-out: strain 16 MIC, strain 16): 2 µg/mL (≈ 3.69 µM)
- MIC [6]: 8 µg/mL (≈ 14.7 µM)
- MIC [7]: 8 µg/mL (≈ 14.7 µM)
- MIC ([8]; Moraxella catarrhalis, ICB489, strain 12): ≤ 0.063 µg/mL
- MIC [21]: 16 µg/mL (≈ 29.5 µM)
- MIC ([9]; Pseudomonas aeruginosa, PAO1, strain 6): 4 µg/mL (≈ 7.37 µM)
- MIC [10]: 0.25 µg/mL (≈ 0.461 µM)
- MIC [11]: 0.25 µg/mL (≈ 0.461 µM)
- MIC ([12]; Enterobacter cloacae, 34654, strain 3): 0.5 µg/mL (≈ 0.922 µM)
- MIC [13]: ≤ 0.063 µg/mL
- MIC ([14]; Escherichia coli, J62, strain 17, read-out: strain 17 MIC): 0.25 µg/mL (≈ 0.461 µM)
- MIC ([15]; Escherichia coli, ATCC25922, strain 1): 0.125 µg/mL (≈ 0.23 µM)
- MIC [16]: 0.125 µg/mL (≈ 0.23 µM)
- MIC ([17]; Citrobacter freundii, K21/3034, strain 4): 0.125 µg/mL (≈ 0.23 µM)
- MIC ([18]; Haemophilus influenzae, ATCC49247, strain 13, read-out: strain 13 MIC): ≤ 0.063 µg/mL
- MIC [19]: 1 µg/mL (≈ 1.84 µM)
- MIC ([20]; Morganella morganii, 126/3048, strain 5): 0.25 µg/mL (≈ 0.461 µM)
